Laboratory results reported in ChEMBL document CHEMBL4152224, “The Identification of Potent, Selective, and Orally Available Inhibitors of Ataxia Telangiectasia Mutated (ATM) Kinase: The Discovery of AZD0156 (8-{6-[3-(Dimethylamino)propoxy]pyridin-3-yl}-3-methyl-1-(tetrahydro-2 H-pyran-4-yl)-1,3-dihydro-2 H-imidazo[4,5- c]quinolin-2-one)” (J Med Chem, 2018).
Values after ≈ are worked out from the molar mass of the structure shown.

Tests used:
[1] = Buffer/octanol partition coefficient, log D of the compound at pH 7.4 by shake flask method; type: physicochemical
[2] = Thermodynamic solubility of the compound in 0.1M aqueous phosphate buffer at pH 7.4 after 24 hrs by LC-UV analysis; type: physicochemical; details: read-out: Therm_solubility
[3] = Intrinsic clearance in human hepatocytes assessed per million cells
[4] = Intrinsic clearance in rat hepatocytes assessed per million cells
[5] = biological target: Voltage-gated inwardly rectifying potassium channel KCNH2 (Homo sapiens, UniProt Q12809); assay: Inhibition of human ERG by electrophysiology assay
Chain of Voltage-gated inwardly rectifying potassium channel KCNH2 (Q12809 whole entry): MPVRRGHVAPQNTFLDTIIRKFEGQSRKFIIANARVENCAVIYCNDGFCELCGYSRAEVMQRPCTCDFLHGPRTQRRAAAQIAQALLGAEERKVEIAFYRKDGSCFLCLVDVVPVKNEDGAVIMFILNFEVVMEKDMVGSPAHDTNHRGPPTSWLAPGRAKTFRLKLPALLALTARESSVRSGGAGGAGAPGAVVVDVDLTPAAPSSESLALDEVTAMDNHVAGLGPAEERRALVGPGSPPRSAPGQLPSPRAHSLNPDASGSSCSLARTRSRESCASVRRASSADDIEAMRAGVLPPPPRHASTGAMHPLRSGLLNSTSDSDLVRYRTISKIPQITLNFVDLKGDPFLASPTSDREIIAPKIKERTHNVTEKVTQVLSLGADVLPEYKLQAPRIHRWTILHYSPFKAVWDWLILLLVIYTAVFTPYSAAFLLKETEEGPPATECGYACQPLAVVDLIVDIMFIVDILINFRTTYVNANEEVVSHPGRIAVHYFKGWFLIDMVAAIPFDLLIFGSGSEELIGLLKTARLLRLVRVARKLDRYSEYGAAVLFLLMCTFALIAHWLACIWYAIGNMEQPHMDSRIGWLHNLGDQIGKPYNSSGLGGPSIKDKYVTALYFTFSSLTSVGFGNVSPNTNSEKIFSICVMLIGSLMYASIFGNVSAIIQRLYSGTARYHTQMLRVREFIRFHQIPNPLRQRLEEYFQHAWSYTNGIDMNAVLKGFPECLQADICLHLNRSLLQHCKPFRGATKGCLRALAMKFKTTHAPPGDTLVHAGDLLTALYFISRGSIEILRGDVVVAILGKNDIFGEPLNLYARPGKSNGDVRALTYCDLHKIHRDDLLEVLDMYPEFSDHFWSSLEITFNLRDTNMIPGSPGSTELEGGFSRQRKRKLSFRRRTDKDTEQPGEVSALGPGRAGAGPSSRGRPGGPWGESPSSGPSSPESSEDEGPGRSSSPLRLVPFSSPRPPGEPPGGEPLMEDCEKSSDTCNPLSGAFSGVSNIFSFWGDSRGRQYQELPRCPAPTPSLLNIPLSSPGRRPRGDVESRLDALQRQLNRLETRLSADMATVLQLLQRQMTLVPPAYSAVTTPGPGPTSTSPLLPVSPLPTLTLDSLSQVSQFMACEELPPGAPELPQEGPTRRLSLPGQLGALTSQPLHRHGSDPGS

[6] = Apparent permeability across apical to basolateral side in MDCK cells overexpressing MDR1; type: ADME, cell-based, Canis lupus familiaris; details: dog
[7] = biological target: Serine-protein kinase ATM (Homo sapiens, UniProt Q13315)
[8] = biological target: Serine/threonine-protein kinase ATR (Homo sapiens, UniProt Q13535)
Chain of Serine/threonine-protein kinase ATR (Q13535 whole entry): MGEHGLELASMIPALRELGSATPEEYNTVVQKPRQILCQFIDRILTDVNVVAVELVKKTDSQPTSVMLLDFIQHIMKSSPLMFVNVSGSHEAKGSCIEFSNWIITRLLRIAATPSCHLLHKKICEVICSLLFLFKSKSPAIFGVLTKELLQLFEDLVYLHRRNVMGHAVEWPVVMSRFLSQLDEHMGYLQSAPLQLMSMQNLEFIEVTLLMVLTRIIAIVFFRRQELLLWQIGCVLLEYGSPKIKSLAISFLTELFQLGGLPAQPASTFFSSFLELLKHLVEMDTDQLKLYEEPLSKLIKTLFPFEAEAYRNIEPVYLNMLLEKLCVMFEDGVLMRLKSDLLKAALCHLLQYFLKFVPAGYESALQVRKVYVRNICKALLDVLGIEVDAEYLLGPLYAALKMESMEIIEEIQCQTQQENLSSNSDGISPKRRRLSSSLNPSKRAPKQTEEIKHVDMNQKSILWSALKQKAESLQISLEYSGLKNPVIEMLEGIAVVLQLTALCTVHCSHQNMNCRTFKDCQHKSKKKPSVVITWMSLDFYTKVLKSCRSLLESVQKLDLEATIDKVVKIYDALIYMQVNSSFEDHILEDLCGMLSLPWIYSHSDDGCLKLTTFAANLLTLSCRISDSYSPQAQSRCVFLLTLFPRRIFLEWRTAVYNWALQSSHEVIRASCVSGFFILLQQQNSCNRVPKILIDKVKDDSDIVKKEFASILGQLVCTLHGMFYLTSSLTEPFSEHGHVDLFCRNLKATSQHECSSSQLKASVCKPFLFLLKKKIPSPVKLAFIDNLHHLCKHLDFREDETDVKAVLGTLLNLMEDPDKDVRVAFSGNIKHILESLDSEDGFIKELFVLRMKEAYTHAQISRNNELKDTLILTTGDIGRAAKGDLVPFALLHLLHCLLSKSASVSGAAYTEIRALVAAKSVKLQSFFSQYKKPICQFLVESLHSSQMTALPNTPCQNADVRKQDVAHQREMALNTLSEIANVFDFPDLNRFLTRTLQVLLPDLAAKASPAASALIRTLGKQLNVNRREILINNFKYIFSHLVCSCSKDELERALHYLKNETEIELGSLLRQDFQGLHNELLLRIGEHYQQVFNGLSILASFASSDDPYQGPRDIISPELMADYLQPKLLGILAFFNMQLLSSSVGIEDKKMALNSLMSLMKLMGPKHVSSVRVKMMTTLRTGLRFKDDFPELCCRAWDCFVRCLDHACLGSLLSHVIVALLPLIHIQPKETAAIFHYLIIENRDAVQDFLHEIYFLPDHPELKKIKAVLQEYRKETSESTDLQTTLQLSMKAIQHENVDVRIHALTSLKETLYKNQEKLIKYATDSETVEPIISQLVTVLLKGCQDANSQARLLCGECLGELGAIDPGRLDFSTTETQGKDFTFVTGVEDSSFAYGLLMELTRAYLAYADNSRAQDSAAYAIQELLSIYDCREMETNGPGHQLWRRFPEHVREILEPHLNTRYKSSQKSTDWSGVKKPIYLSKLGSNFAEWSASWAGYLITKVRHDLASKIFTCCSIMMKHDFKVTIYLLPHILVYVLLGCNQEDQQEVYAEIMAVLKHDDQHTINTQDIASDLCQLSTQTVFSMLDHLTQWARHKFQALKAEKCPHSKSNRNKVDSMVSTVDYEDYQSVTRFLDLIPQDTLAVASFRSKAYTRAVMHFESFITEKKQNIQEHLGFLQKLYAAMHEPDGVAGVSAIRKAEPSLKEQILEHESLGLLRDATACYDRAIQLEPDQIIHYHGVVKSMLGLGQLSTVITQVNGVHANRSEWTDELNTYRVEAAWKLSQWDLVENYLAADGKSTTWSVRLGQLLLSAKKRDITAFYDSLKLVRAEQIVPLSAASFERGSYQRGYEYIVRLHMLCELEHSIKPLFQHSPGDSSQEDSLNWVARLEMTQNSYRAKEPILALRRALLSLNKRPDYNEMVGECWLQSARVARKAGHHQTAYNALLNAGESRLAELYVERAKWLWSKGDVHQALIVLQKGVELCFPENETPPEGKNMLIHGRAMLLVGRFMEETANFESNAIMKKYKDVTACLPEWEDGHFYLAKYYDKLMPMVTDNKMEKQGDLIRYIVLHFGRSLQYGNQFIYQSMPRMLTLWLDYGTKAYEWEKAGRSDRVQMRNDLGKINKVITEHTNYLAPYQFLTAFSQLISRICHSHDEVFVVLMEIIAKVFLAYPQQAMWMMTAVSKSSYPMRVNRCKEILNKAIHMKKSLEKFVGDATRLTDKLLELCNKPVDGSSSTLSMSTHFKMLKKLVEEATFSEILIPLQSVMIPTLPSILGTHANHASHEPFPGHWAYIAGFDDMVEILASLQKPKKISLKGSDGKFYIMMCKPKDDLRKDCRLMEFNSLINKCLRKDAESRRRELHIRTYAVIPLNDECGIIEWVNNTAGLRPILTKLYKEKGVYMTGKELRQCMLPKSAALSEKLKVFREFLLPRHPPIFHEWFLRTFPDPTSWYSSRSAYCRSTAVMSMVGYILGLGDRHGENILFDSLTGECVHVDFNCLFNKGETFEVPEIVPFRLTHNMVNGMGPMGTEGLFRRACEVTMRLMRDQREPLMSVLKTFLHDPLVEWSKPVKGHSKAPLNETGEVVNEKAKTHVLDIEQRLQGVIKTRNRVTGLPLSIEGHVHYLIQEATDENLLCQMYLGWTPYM

in vitro = details: dog, MDCK-MDR1
Description: Efflux ratio of apparent permeability across basolateral to apical over apical to basolateral side in MDCK cells overexpressing MDR1

Row | Structure (SMILES) | logD [1] | solubility thermodynamic at 24 h [2] | hepatocyte CLint [3] | hepatocyte CLint [4] | IC50 [5] | Papp A→B [6] | IC50 [7] | IC50 [8] | efflux ratio (in vitro)
1 | COCc1ccc(-c2cc3c(cc2F)ncc2c3n(C3CCOCC3)c(=O)n2C)cn1 | 2.4 | 99 µM (≈ 41.8 µg/mL) | < 4 µL/min/1e6 cells | 7.5 µL/min/1e6 cells | 27 µM | 43 ×10⁻⁶ cm/s | 0.45 µM | > 20 µM | 0.8
2 | CN(C)CCCOc1ccc(-c2ccc3ncc4c(c3c2)n(C2COC2)c(=O)n4C)cn1 | 0.7 | 52 µM (≈ 22.5 µg/mL) | < 1 µL/min/1e6 cells | 7.8 µL/min/1e6 cells | > 33 µM | 3.2 ×10⁻⁶ cm/s |  |  | 9.8
3 | CO[C@H]1C[C@@H](n2c(=O)n(C)c3cnc4cc(F)c(-c5ccc(OCCCN(C)C)nc5F)cc4c32)C1 | 2.1 | > 1000 µM | 14 µL/min/1e6 cells | 9 µL/min/1e6 cells | 22 µM | 10 ×10⁻⁶ cm/s |  |  | 2.5
4 | COCc1ccc(-c2cc3c(cc2F)ncc2c3n([C@@H](C)C3CCOCC3)c(=O)n2C)cn1 | 2.7 | > 1000 µM | 22 µL/min/1e6 cells | 1.6 µL/min/1e6 cells | 15 µM | 27 ×10⁻⁶ cm/s | 0.49 µM | > 30 µM | 0.8
5 | CN(C)CCCOc1ccc(-c2ccc3nnc4c(c3c2)n(C2CCOCC2)c(=O)n4C)cn1 | 0.8 |  | < 1 µL/min/1e6 cells | 2.5 µL/min/1e6 cells |  |  | 0.022 µM | > 30 µM | 
6 | CO[C@H]1C[C@@H](n2c(=O)n(C)c3cnc4ccc(-c5ccc(OCCCN(C)C)nc5F)cc4c32)C1 | 2 | > 1100 µM | 15 µL/min/1e6 cells | 9.3 µL/min/1e6 cells | > 33 µM | 4.2 ×10⁻⁶ cm/s |  |  | 
7 | CO[C@H]1C[C@@H](n2c(=O)n(C)c3cnc4ccc(-c5ccc(OCCCN6CCCCC6)nc5)cc4c32)C1 | 2.2 | > 1000 µM | 3 µL/min/1e6 cells | 4 µL/min/1e6 cells | 14 µM | 5.4 ×10⁻⁶ cm/s |  |  | 
8 | Cn1c(=O)n(C2CCOCC2)c2c3cc(-c4ccc(OCCC[N+](C)(C)[O-])nc4)ccc3ncc21 |  |  |  |  |  |  | 0.005 µM | 10 µM | 
9 | CN(C)CCCOc1ccc(-c2ccc3ncc4c(c3c2)n([C@H]2C[C@@H](O)C2)c(=O)n4C)cn1 | 1.1 | > 1000 µM | 3.5 µL/min/1e6 cells | 2.7 µL/min/1e6 cells | > 33 µM | < 0.2 ×10⁻⁶ cm/s |  |  | > 100
10 | CO[C@H]1C[C@@H](n2c(=O)n(C)c3cnc4cc(F)c(-c5ccc(N(C)CCN(C)C)nc5)cc4c32)C1 | 2.2 | > 1000 µM | 5.1 µL/min/1e6 cells | 18 µL/min/1e6 cells |  | 6.3 ×10⁻⁶ cm/s | 0.23 µM | > 30 µM | 
11 | CO[C@H]1C[C@@H](n2c(=O)n(C)c3cnc4cc(F)c(-c5ccc(NCCN(C)C)nc5)cc4c32)C1 | 1.7 | > 1000 µM | 2.8 µL/min/1e6 cells | 9.6 µL/min/1e6 cells | 24 µM | 3.4 ×10⁻⁶ cm/s | 0.006 µM | > 30 µM | 11
12 | Cn1c(=O)n(C2CCOCC2)c2c3cc(-c4ccc(OCCCN5CCCCC5)nc4)c(F)cc3ncc21 | 2.1 | 310 µM (≈ 161 µg/mL) | 5.3 µL/min/1e6 cells | 5.1 µL/min/1e6 cells | > 33 µM | 6.4 ×10⁻⁶ cm/s | 0.0012 µM | > 29 µM | 2.2
13 | CN(C)CCCOc1ccc(-c2ccc3ncc4c(c3n2)n(C2CCOCC2)c(=O)n4C)cn1 | 1.6 |  | 12.8 µL/min/1e6 cells | 9.2 µL/min/1e6 cells |  |  | 0.0017 µM | 2 µM | 
14 | Cn1c(=O)n([C@H]2CCCOC2)c2c3cc(-c4ccc(OCCCN5CCCCC5)nc4)c(F)cc3ncc21 | 2.4 | 330 µM (≈ 171 µg/mL) | 4 µL/min/1e6 cells | 6.2 µL/min/1e6 cells | 18 µM | 7.1 ×10⁻⁶ cm/s | 0.0011 µM |  | 1.4
15 | CN(C)CCCOc1ccc(-c2ccc3ncc4c(c3c2)n([C@@H]2CCCOC2)c(=O)n4C)cn1 | 1.8 | > 1000 µM | 5.6 µL/min/1e6 cells | 3.7 µL/min/1e6 cells | > 33 µM | 7.5 ×10⁻⁶ cm/s |  | > 23 µM | 
16 | CCC(CC)CNc1c(C(N)=O)cnc2cc(F)c(-c3cnc(NCCN4CCCC4)nc3)cc12 | 2.8 |  |  |  |  | 0.8 ×10⁻⁶ cm/s | 0.0086 µM | > 30 µM | 28
17 | O=c1[nH]c2cnc3ccc(-c4cccnc4)cc3c2n1C1CCOCC1 | 2.4 | 12 µM (≈ 4.16 µg/mL) |  |  |  |  |  | 0.051 µM | 
18 | COCc1ccc(-c2cc3c(N[C@@H](C)c4ccn(C)n4)c(C(N)=O)cnc3cc2F)cn1 |  |  |  |  |  | 12 ×10⁻⁶ cm/s |  |  | 8.7
19 | CO[C@H]1C[C@@H](n2c(=O)n(C)c3cnc4cc(F)c(-c5ccc(C(=O)NCCN(C)C)nc5)cc4c32)C1 | 1.5 | 980 µM (≈ 483 µg/mL) | 4 µL/min/1e6 cells | 2.9 µL/min/1e6 cells | > 33 µM | 2.5 ×10⁻⁶ cm/s | 0.13 µM | > 30 µM | 11
20 | CN(C)CCCOc1ccc(-c2cc3c(cc2F)ncc2c3n(C3CCOCC3)c(=O)n2C)cn1 | 1.5 | > 1000 µM | 6.8 µL/min/1e6 cells | 8.3 µL/min/1e6 cells | > 33 µM | 7.9 ×10⁻⁶ cm/s |  |  | 4.4
21 | CO[C@H]1C[C@@H](n2c(=O)n(C)c3cnc4ccc(-c5ccc(OCCCN6CCC6)nc5)cc4c32)C1 | 1.4 | 770 µM (≈ 365 µg/mL) | 3.3 µL/min/1e6 cells | 2.5 µL/min/1e6 cells | > 33 µM | 3.5 ×10⁻⁶ cm/s |  | > 24 µM | 7.8
22 | CO[C@H]1C[C@@H](n2c(=O)n(C)c3cnc4cc(F)c(-c5ccc(CS(C)(=O)=O)nc5)cc4c32)C1 | 1.3 | 18 µM (≈ 8.47 µg/mL) |  | 2.4 µL/min/1e6 cells | 14 µM | 14 ×10⁻⁶ cm/s | 0.16 µM | > 16 µM | 2.4
23 | CN(C)CCCOc1ccc(-c2ccc3ncc4c(c3c2)n([C@H]2CCCOC2)c(=O)n4C)cn1 | 1.8 | > 1000 µM | 6.1 µL/min/1e6 cells | 3 µL/min/1e6 cells | 27 µM | 6.5 ×10⁻⁶ cm/s |  |  | 
24 | COCc1ccc(-c2ccc3ncc4c(c3c2)n(C2CCOCC2)c(=O)n4C)cn1 | 2.3 | 19 µM (≈ 7.68 µg/mL) | < 3 µL/min/1e6 cells | 63 µL/min/1e6 cells | > 33 µM | 32 ×10⁻⁶ cm/s |  | > 13 µM | 
25 | CO[C@H]1C[C@@H](n2c(=O)n(C)c3cnc4cc(F)c(-c5ccc(CO)nc5)cc4c32)C1 | 2 | 23 µM (≈ 9.39 µg/mL) |  | 5 µL/min/1e6 cells | 23 µM | 29 ×10⁻⁶ cm/s | 0.23 µM | 15 µM | 1.1
26 | CC(C)n1c(=O)n(C2CCOCC2)c2c3cc(-c4cccnc4)ccc3ncc21 | 2.9 | 41 µM (≈ 15.9 µg/mL) |  |  |  |  | > 30 µM | > 27.6 µM | 
